Where a name gives a salt, the structure may show the parent alone.
Tests used:
HGC27 = test: Tumour cell proliferation inhibition, MTT assay, HGC27; type: cell-based, human
786-O = test: Tumour cell proliferation inhibition, MTT assay, 786-O; type: cell-based, human
MCF-7 = test: Tumour cell proliferation inhibition, MTT assay, MCF-7; type: cell-based, human
CEM-C1 = test: Tumour cell proliferation inhibition, MTT assay, CEM-C1; type: cell-based, human
HCT-116 = test: Tumour cell proliferation inhibition, MTT assay, HCT-116; type: cell-based, human
Method: (§1) Compound AZD5363 (NCT02208375, NCT02208375, NCT01625286), which have entered the clinical phase II study, was used as a positive control, and the compound was assayed against common tumour cell lines (human ovarian cancer cell line OVCAR-8 and human colon cancer cell line HCT-116) by MTT assay, at the same time, the akt1 enzyme inhibitory activity (IC50) was evaluated using a commercial Akt1 kit.
1) The pharmacological test method for the tumour cell proliferation inhibiting activity of the compound of the present invention was as follows:
The first was the determination of in vitro tumour growth inhibitory activity and the preliminary structure-activity relationship study, and different solid tumour cell lines were used to determine the in vitro antitumour activity of the synthesized compounds.
Experimental materials: cell lines: human ovarian cancer cells (OVCAR8), colon adenocarcinoma cells (HCT-116),
Medium: OVCAR8: RPMI 1640+fetal calf serum
Drug preparation method: dissolving the drug in DMSO to make a 50 mM of stock solution, and diluting it to a certain ratio to obtain 5 different concentrations.
Tumour Cells being Cultured In Vitro:
The selected tumour cells were incubated in a, 5% of CO2 cell incubator at 37° C., and passaged until the cell density was 70 to 90% (the adherent cells were passaged with Duck's EDTA) and used for subsequent experiments.
The compound was dissolved in dimethyl sulfoxide (DMSO), diluted, and tumour cells were seeded into 4000 cells/200 μL/well in 96-well plates, and 1 μL of compound was added to each well to a final concentration of 50 μM, 10 μM, 2 μM, and 0.4 μM. 0.08 μM were incubated in a, 5% of CO2 cell incubator at 37° C. for 72 hours with DMSO (1%) as a blank control.
The calculation formula of the cell inhibition rate is: cell inhibition rate %=(control group OD value−drug group OD value)/control cell OD value×100%, and the half inhibition concentration (IC50) was determined by the Bliss method.

AKT1/PKBα = target: T1, AKT1/PKBα (Homo sapiens, UniProt P31749); test: Akt1 enzyme inhibitory activity, AKT1/PKBα KinEASE FP Fluorescein Green Assay; type: biochemical; conditions: fluorescence polarization kit assay; read-out: Akt1 IC50 (grade)
T1 construct: purchased
Method: as §1
2) Test method for the inhibitory activity of the compound of the present invention against Akt1 enzyme:
The AKT1/PKBα KinEASE™ FP Fluorescein Green Assay (Kinase Green Fluorescence Detection System) was used to detect the inhibitory activity of the compound on AKT1/PKBα.
Fluorescence polarization detection protein kinase B employs the principle of a competitive reaction: a fluorescently labeled phosphorylated tracer and an unlabeled phosphorylated product produced by the reaction of protein kinase B will compete with the anti-serine antibody for binding. In a reaction mixture […], when a part of the fluorescent tracer binds to the antibody, it causes a higher polarization value. However, in the reaction solution mixture containing the phosphorylated product, less tracer binds to the antibody (the fluorescent tracer was replaced from the antibody) and the emitted signal was depolarized. Therefore, the change in polarization was directly related to the activity of protein kinase B in the reaction.
The compound of the present invention and the positive control AZD5363 were dissolved in dimethyl sulfoxide (DMSO) and diluted to a concentration of 50 μM. At room temperature, 0.25 μl of the compound sample and the positive control at a concentration of 50 μM were taken and added to the 384-well plate, and three parallel wells were set for each sample, and then 10 μl of STK Substrate 3, Working Solution, 5 μl AKT1/PKBα Working Solution, 10 μl ATP Working Solution were added to each sample well plate with vibrating gently and shaking for a few minutes. The reaction starts after 10 μl of ATP Working Solution was added to the well, and the reaction was timed at room temperature for 1 hour. After one hour, 5 μl of STK Stop Mix and 5 μl of STK Antibody Mix were added to each well respectively to stop the reaction. After the addition completes, it was allowed to stand at room temperature for four hours, and the polarization value of the sample was detected by the fluorescence polarization of the microplate reader (it was effective to detect its signal within 24 hours), and the inhibition rate of the compound was calculated by the polarization value, and then IC50 was calculated.
Four sets of controls were set in the experiment, namely Buffer Control Wells, Tracer Control Wells, No Enzyme Wells, and a blank dimethyl sulfoxide control. The resulting data was used to calculate the inhibition rate.
The activity of the compound was divided into three grades according to the size of the IC50 of the Akt inhibitory activity: “+++”, 1 nM<IC50<10 nM; “++”, 10 nM<IC50<50 nM; “+”, 50 nM<IC50.

hERG potassium channel = target: T2, hERG potassium channel (Homo sapiens, UniProt Q12809); test: hERG potassium channel inhibition, manual whole-cell patch clamp in CHO hERG cells; type: cell-based; conditions: 3 μM, CHO hERG cells, patch clamp
T2 construct: host or cells: CHO
Method: A Sixty-Third Embodiment: hERG Potassium Channel Inhibition Activity Experiment
The cells used in this assay were CHO cell lines transfected with hERG cDNA and stably expressing the hERG channel (supplied by Sophion Bioscience, Denmark). The cells were cultured in medium containing the following components (all from Invitrogen): Ham's F12 medium, 10% (v/v) inactivated fetal bovine serum, 100 μg/ml hygromycin B, and 100 μg/ml Geneticin. 2.1.2CHO hERG cells were grown in a Petri dish containing the above culture solution, and cultured in an incubator containing 5% of CO2 at 37° C. 24 to 48 hours prior to electrophysiological experiments, CHO hERG cells were transferred to circular glass slides placed in petri dishes and grown under the same culture and culture conditions as above. The density of CHO hERG cells on each circular slide requires that most cells achieve independent, individual requirements.
2. Compound Treatment and Dilution
To obtain the IC50 of the compound, we selecte the following concentrations (30, 10, 3, 1, 0.3, and 0.1 μM) for testing. Prior to testing, the […] were first diluted to 10, 3, 1, 0.3, and 0.1 mM stock solution in gradual dilution with DMSO and then diluted to the final μM test concentration with extracellular fluid. The final concentration of DMSO in each of the other compound solutions was 0.1% except that the DMSO concentration in the 30 μM compound test solution was 0.3%. The positive control Cisapride (cishabili) was tested at a concentration of 0.1 μM. All compound solutions were sonicated and shaken for 5 to 10 minutes to ensure complete dissolution of the compound.
3. Electrophysiological Recording System and Data Analysis
This experiment uses a manual patch clamp system (HEKA EPC-10 signal amplifier and digital conversion system, purchased from HEKA Electronics, Germany) for the recording of whole cell currents. Round slide with CHO hERG cells on the surface was placed in an electrophysiology recording cell under an inverted microscope. The extracellular fluid was continuously perfused in the recording tank (about 1 ml per minute). The experimental procedure uses conventional whole-cell patch clamp current recording techniques. Unless otherwise stated, the experiments were carried out at regular room temperature (˜25° C.). The cells were clamped at a voltage of −80 mV. The cell clamp voltage was depolarized to +20 mV to activate the hERG potassium channel, and after 5 seconds it was clamped to −50 mV to eliminate inactivation and generate tail current. The tail current peak was used as the value of the hERG current magnitude. After the hERG potassium current recorded in the above step was stabilized under the continuous extracellular fluid perfusion in the recording tank, the drug to be tested can be superimposed and filled until the inhibitory effect of the drug on the hERG current reaches a steady state. Generally, the recent three consecutive current recording lines were recombined as a criterion for judging whether or not the state is stable. After reaching a steady state, extracellular fluid perfusion rinse until hERG current returns to the size before adding drug. One cell can test one or more drugs, or multiple concentrations of the same drug, but need to be flushed with extracellular fluid between different drugs. Cisapride (cisapride, purchased from Sigma) was used in the experiment as a positive control to ensure that the cells used were of normal quality. The test data was analysed by HEKA Patchmaster, Microsoft Excel and data analysis software provided by Graphpad Prism.

T1 sequence (P31749 whole entry): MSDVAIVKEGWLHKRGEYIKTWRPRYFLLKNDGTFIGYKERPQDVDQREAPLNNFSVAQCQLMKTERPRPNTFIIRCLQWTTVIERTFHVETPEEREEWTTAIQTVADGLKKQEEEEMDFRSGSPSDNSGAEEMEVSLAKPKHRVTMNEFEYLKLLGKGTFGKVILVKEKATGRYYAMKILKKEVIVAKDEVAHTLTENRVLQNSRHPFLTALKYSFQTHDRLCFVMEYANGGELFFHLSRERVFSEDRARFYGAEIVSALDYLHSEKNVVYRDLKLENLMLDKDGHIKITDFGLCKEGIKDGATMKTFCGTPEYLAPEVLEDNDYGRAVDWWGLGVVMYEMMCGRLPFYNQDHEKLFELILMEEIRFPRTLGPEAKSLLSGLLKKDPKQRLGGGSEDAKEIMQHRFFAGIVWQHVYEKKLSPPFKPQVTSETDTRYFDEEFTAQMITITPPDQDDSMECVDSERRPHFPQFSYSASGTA
T2 sequence (Q12809 whole entry): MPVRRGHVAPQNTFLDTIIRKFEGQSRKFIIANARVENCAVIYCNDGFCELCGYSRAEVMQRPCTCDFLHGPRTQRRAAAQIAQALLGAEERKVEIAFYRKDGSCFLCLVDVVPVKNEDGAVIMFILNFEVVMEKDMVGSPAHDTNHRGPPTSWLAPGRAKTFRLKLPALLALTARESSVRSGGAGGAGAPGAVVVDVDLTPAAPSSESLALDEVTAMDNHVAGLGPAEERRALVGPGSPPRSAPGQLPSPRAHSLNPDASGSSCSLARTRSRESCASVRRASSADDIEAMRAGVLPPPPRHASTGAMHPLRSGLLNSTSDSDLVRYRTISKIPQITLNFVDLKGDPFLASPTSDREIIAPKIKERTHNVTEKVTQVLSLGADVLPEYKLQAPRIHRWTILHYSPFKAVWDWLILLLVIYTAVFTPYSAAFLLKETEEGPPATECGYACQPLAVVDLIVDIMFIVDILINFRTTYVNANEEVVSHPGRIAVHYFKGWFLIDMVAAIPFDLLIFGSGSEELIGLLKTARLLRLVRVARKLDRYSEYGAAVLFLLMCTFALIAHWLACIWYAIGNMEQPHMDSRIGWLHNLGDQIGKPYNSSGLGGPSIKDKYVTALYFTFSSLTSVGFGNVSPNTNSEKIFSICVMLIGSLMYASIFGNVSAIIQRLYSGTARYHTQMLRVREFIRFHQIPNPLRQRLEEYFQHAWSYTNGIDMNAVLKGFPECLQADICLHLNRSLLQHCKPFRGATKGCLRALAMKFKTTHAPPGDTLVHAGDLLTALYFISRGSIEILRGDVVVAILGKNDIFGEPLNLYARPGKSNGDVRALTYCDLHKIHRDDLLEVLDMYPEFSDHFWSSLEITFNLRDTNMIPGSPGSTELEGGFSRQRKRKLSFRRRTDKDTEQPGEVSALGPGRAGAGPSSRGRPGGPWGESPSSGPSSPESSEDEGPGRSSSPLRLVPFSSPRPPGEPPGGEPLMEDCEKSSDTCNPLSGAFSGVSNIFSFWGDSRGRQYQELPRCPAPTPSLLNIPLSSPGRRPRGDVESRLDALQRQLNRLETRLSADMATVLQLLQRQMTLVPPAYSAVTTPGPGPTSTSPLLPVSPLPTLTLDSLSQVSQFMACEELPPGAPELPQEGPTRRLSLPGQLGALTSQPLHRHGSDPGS

Structure (SMILES)	IC50 (HGC27; Homo sapiens, HGC-27, 72 h) [µM]	IC50 (786-O; Homo sapiens, 786-0, 72 h) [µM]	IC50 (MCF-7; Homo sapiens, MCF7, 72 h) [µM]	IC50 (CEM-C1; Homo sapiens, CEM/C1, 72 h) [µM]	IC50 (HCT-116; Homo sapiens, HCT-116, 72 h) [µM]	IC50 (AKT1/PKBα) [µM]	hERG (Inhibition rate at 3 μM concentration) (hERG potassium channel) [%]	IC50 (HGC27; 72 hours, citrate) [µM]	IC50 (786-O; 72 hours, citrate) [µM]	IC50 (MCF-7; 72 hours, citrate) [µM]	IC50 (CEM-C1; 72 hours, citrate) [µM]	IC50 (HCT-116; 72 hours, citrate) [µM]	IC50 (HGC27; 72 hours, D-malate) [µM]	IC50 (786-O; 72 hours, D-malate) [µM]	IC50 (MCF-7; 72 hours, D-malate) [µM]	IC50 (CEM-C1; 72 hours, D-malate) [µM]	IC50 (HCT-116; 72 hours, D-malate) [µM]
Cn1ncc(Cl)c1-c1ccc(C(=O)N[C@@H]2CNCC[C@H]2c2ccc(F)c(F)c2)cc1F [reference compound]	0.12	1.28	6.32	0.57	5.86	0.01 to 0.05											
Cn1ncc(F)c1-c1ccc(C(=O)N[C@@H]2CNCC[C@H]2c2ccc(F)c(F)c2)c(F)c1 [VII-7]	0.06	0.99	2.84	0.09	2.39	0.01 to 0.05											
Cn1nccc1-c1cc(F)c(C(=O)N[C@@H]2CNCC[C@H]2c2ccc(F)c(F)c2)cc1F [VII-18]	0.03	0.55	1.18	0.02	0.99	0.001 to 0.01	17.6										
Cn1nccc1-c1ccc(C(=O)N[C@@H]2CNCC[C@H]2c2ccc(F)c(F)c2)c(F)c1 [VII-37, citrate]						0.001 to 0.01		0.05	0.67	1.36	0.11	1.06					
Cn1nccc1-c1ccc(C(=O)N[C@@H]2CNCC[C@H]2c2ccc(F)c(F)c2)c(F)c1 [VII-31, D-malate]						0.001 to 0.01							0.01	0.65	2.96	0.1	1.52
Cn1nccc1-c1ccc(C(=O)N[C@@H]2CNCC[C@H]2c2ccc(F)c(F)c2)cc1 [drawing 111, reference compound]	0.19	2.06	10.6	0.62	10.5	0.01 to 0.05											
